{
  "source": "ChEMBL document CHEMBL1151399",
  "about": "“Identification of terpenoids from the leaves of Piptocarpha paradoxa and their biological activities” (J Nat Prod, 1982)",
  "assay_type_in_all_cases": "functional, organism-based",
  "key": {"Klebsiella aerogenes": {"tested_on": "Klebsiella aerogenes", "assay": "Antimicrobial activity against Enterobacter aerogenes Kruse 1896 by Kirby and Baur method"}, "Kocuria rosea": {"tested_on": "Kocuria rosea", "assay": "Antimicrobial activity against Micrococcus roseus Flugge 1886 by Kirby and Baur method"}, "Staphylococcus aureus": {"tested_on": "Staphylococcus aureus", "assay": "Antimicrobial activity against Staphylococcus aureus Rosenbach 1884 by Kirby and Baur method"}, "Salmonella typhi": {"tested_on": "Salmonella typhi", "assay": "Antimicrobial activity against Salmonella typhi Zopf 1884 by Kirby and Baur method", "details": "Salmonella enterica subsp. enterica serovar Typhi"}, "Escherichia coli": {"tested_on": "Escherichia coli", "assay": "Antimicrobial activity against Escherichia coli Migula 1895 by Kirby and Baur method"}, "Providencia rettgeri": {"tested_on": "Providencia rettgeri", "assay": "Antimicrobial activity against Proteus rettgeri Hadley 1918 by Kirby and Baur method"}, "Streptococcus sp.": {"tested_on": "Streptococcus sp.", "assay": "Antimicrobial activity against Streptococcus sp. Rosenbach 1884 by Kirby and Baur method"}, "Candida": {"tested_on": "Candida", "assay": "Antimicrobial activity against Candida sp. Berkhout by Kirby and Baur method"}},
  "note": "Calls of active or inactive are those of the source. The rule behind the calls is not given here.",
  "data": [
    {"smiles": "C=C1CCC2CC1C(C)(C)CC(O)/C=C\\2C", "note": "(stereo not drawn)", "values": [
      {"measurement": "Activity", "setting": "Klebsiella aerogenes", "value": "inactive"},
      {"measurement": "Activity", "setting": "Kocuria rosea", "value": "inactive"},
      {"measurement": "Activity", "setting": "Staphylococcus aureus", "value": "Active"},
      {"measurement": "Activity", "setting": "Salmonella typhi", "value": "inactive"},
      {"measurement": "Activity", "setting": "Escherichia coli", "value": "inactive"},
      {"measurement": "Activity", "setting": "Providencia rettgeri", "value": "inactive"},
      {"measurement": "Activity", "setting": "Streptococcus sp.", "value": "inactive"},
      {"measurement": "Activity", "setting": "Candida", "value": "inactive"}
    ]}
  ]
}
